In patent US4818753A, “Synthesis and method of use for 2, 4 diaminoquinazoline” (SRI International, priority 1987, dated 1989):
Converted amounts (≈) assume the structure as drawn. Where two headings read alike, the source gives them in different places.

What was measured:
Assay in all cases: Agar dilution assay
Format in all cases: cell-based
[1] = system: A. flavus MF0383; settings: Aspergillus flavus, MF0383, 48 h, read-out: Minimum inhibitory concentration
Description: (§1) For the agar dilution assay, the test panel consisted of 18 yeastlike and 3 Filamentus fungii. Four media were used. These were yeast nitrogen base dextrose (0.5% agar) (YNBDA); pH 5.5; YNBDA with pH adjusted to pH 7.5; and micrological agar (MA), pH 7.0; and Sabouraud dextrose agar, pH 5.7. The media was manufactured by Difco (Detroit, MI) and prepared according to the manufacturer's instructions.
(§2) The test compounds were solubilized in 10% aqueous DMSO; the control drug, Nystatin, was solublized in 10% aqueous DMF. The drugs were serially diluted twofold in sterile water to yield concentrations of 1.28 mg/ml to […]. One ml of diluted drug was added to 9 ml of cooled (50° C.) molten agar in plastic petri plates to yield final drug concentrations in the agar ranging from 128 to 0.063 ug/ml. Appropriate solvent and media control plates were prepared as well, and all plates stored in the dark at 4° C. overnight. The yeast cultures, maintained in yeast maltose (YM; Difco), were transferred to fresh YM medium and incubating overnight at 37° C. with shaking at 250 rpm. After incubation each culture was diluted in sterile saline to yield concentrations of 3×10^5 to 3×10^6 cfu/ml. Isolates of aspergillis and penicillium were made on potato dextrose agar slants, and spore suspensions were made following vigorous shaking with sterile glass beads. The spore preparation were used as inocula for these fungi.
(§3) Each prepared place was inoculated with the 21-member panel using a Denleigh multipoint inoculator (Sussex, England). The inoculator delivers approximately 1 ul to the agar surface, resulting in inoculation of from 3×10^2 to 3×10^3 cfu. The plates were incubated at 28° C. for 48 h, and the minimum inhibitory concentrations (MIC) of each drug were recorded as the lower concentration of the drug permitting no growth or growth of less than 3 cfu/spot.

[2] = system: Aspergillus fumigatus MY4839; settings: MY4839, 48 h
Description: as §1, §2, §3

[3] = system: Ca. albicans MY0992; settings: Candida albicans, MY0992, 48 h, read-out: Minimum inhibitory concentration
Description: as §1, §2, §3

[4] = system: Ca. albicans MY1013; settings: Candida albicans, MY1013, 48 h, read-out: Minimum inhibitory concentration
Description: as §1, §2, §3

[5] = system: Ca. albicans MY1029; settings: Candida albicans, MY1029, 48 h, read-out: Minimum inhibitory concentration
Description: as §1, §2, §3

[6] = system: Ca. albicans MY1055; settings: Candida albicans, MY1055, 48 h, read-out: Minimum inhibitory concentration
Description: as §1, §2, §3

[7] = system: Ca. krusei MY1020; settings: Pichia kudriavzevii, MY1020, 48 h, read-out: Minimum inhibitory concentration
Description: as §1, §2, §3

[8] = system: Ca. parapsilosis MY1010; settings: Lodderomyces parapsilosis, MY1010, 48 h, read-out: Minimum inhibitory concentration
Description: as §1, §2, §3

[9] = system: Ca. pseudotropicalis MY1040; settings: Kluyveromyces marxianus, MY1040, 48 h, read-out: Minimum inhibitory concentration
Description: as §1, §2, §3

[10] = system: Ca. stellatoidea MY1017; settings: Candida albicans, MY1017, 48 h, read-out: Minimum inhibitory concentration
Description: as §1, §2, §3

[11] = system: Ca. tropicalis MY1011; settings: Candida tropicalis, MY1011, 48 h, read-out: Minimum inhibitory concentration
Description: as §1, §2, §3

[12] = system: Candida albicans MY1058; settings: MY1058, 48 h
Description: as §1, §2, §3

[13] = system: Cr. neoformans MY1146; settings: Cryptococcus neoformans, MY1146, 48 h, read-out: Minimum inhibitory concentration
Description: as §1, §2, §3

[14] = system: Cryptococcus neoformans MY1051; settings: MY1051, 48 h
Description: as §1, §2, §3

[15] = system: Sac. cerevisiae MY1027; settings: Saccharomyces cerevisiae, MY1027, 48 h, read-out: Minimum inhibitory concentration
Description: as §1, §2, §3

[16] = system: Torulopsis glabrata MY1059; settings: Nakaseomyces glabratus, MY1059, 48 h, read-out: Minimum inhibitory concentration
Description: as §1, §2, §3

[17] = MA pH 7.0, read-out: Minimum inhibitory concentration
[18] = SDA pH 5.7, read-out: Minimum inhibitory concentration
[19] = YNBDA pH 5.5, read-out: Minimum inhibitory concentration
[20] = YNBDA pH 7.5, read-out: Minimum inhibitory concentration

## CCCCCCCCc1ccc2nc(N)nc(N)c2c1C [2,4-Diamino-5-methyl-6-n-octylquinazoline]
[1]; MA pH 7.0
  MIC: 64 mg/L (≈ 223 µM)
[1]; SDA pH 5.7
  MIC: > 128 mg/L
[1]; YNBDA pH 5.5
  MIC: > 128 mg/L
[1]; YNBDA pH 7.5
  MIC: 16 mg/L (≈ 55.9 µM)
[2]; [17]
  MIC: 64 mg/L (≈ 223 µM)
[2]; [18]
  MIC: > 128 mg/L
[2]; [19]
  MIC: > 128 mg/L
[2]; [20]
  MIC: 32 mg/L (≈ 112 µM)
[3]; MA pH 7.0
  MIC: 16 mg/L (≈ 55.9 µM)
[3]; SDA pH 5.7
  MIC: > 128 mg/L
[3]; YNBDA pH 5.5
  MIC: > 128 mg/L
[3]; YNBDA pH 7.5
  MIC: 16 mg/L (≈ 55.9 µM)
[4]; MA pH 7.0
  MIC: 16 mg/L (≈ 55.9 µM)
[4]; SDA pH 5.7
  MIC: 128 mg/L (≈ 447 µM)
[4]; YNBDA pH 5.5
  MIC: > 128 mg/L
[4]; YNBDA pH 7.5
  MIC: 16 mg/L (≈ 55.9 µM)
[5]; MA pH 7.0
  MIC: 32 mg/L (≈ 112 µM)
[5]; SDA pH 5.7
  MIC: > 128 mg/L
[5]; YNBDA pH 5.5
  MIC: > 128 mg/L
[5]; YNBDA pH 7.5
  MIC: 32 mg/L (≈ 112 µM)
[6]; MA pH 7.0
  MIC: 32 mg/L (≈ 112 µM)
[6]; SDA pH 5.7
  MIC: > 128 mg/L
[6]; YNBDA pH 5.5
  MIC: > 128 mg/L
[6]; YNBDA pH 7.5
  MIC: 32 mg/L (≈ 112 µM)
[7]; MA pH 7.0
  MIC: 8 mg/L (≈ 27.9 µM)
[7]; SDA pH 5.7
  MIC: > 128 mg/L
[7]; YNBDA pH 5.5
  MIC: > 128 mg/L
[7]; YNBDA pH 7.5
  MIC: 8 mg/L (≈ 27.9 µM)
[8]; MA pH 7.0
  MIC: 4 mg/L (≈ 14 µM)
[8]; SDA pH 5.7
  MIC: > 128 mg/L
[8]; YNBDA pH 5.5
  MIC: > 128 mg/L
[8]; YNBDA pH 7.5
  MIC: 8 mg/L (≈ 27.9 µM)
[9]; MA pH 7.0
  MIC: 4 mg/L (≈ 14 µM)
[9]; SDA pH 5.7
  MIC: 128 mg/L (≈ 447 µM)
[9]; YNBDA pH 5.5
  MIC: 128 mg/L (≈ 447 µM)
[9]; YNBDA pH 7.5
  MIC: 4 mg/L (≈ 14 µM)
[10]; MA pH 7.0
  MIC: 16 mg/L (≈ 55.9 µM)
[10]; SDA pH 5.7
  MIC: 128 mg/L (≈ 447 µM)
[10]; YNBDA pH 5.5
  MIC: > 128 mg/L
[10]; YNBDA pH 7.5
  MIC: 16 mg/L (≈ 55.9 µM)
[11]; MA pH 7.0
  MIC: 16 mg/L (≈ 55.9 µM)
[11]; SDA pH 5.7
  MIC: 128 mg/L (≈ 447 µM)
[11]; YNBDA pH 5.5
  MIC: > 128 mg/L
[11]; YNBDA pH 7.5
  MIC: 16 mg/L (≈ 55.9 µM)
[12]; [17]
  MIC: 16 mg/L (≈ 55.9 µM)
[12]; [18]
  MIC: > 128 mg/L
[12]; [19]
  MIC: > 128 mg/L
[12]; [20]
  MIC: 32 mg/L (≈ 112 µM)
[13]; MA pH 7.0
  MIC: 4 mg/L (≈ 14 µM)
[13]; SDA pH 5.7
  MIC: 16 mg/L (≈ 55.9 µM)
[13]; YNBDA pH 5.5
  MIC: 128 mg/L (≈ 447 µM)
[13]; YNBDA pH 7.5
  MIC: 8 mg/L (≈ 27.9 µM)
[14]; [17]
  MIC: 4 mg/L (≈ 14 µM)
[14]; [18]
  MIC: 16 mg/L (≈ 55.9 µM)
[14]; [19]
  MIC: 128 mg/L (≈ 447 µM)
[14]; [20]
  MIC: 8 mg/L (≈ 27.9 µM)
[15]; MA pH 7.0
  MIC: 4 mg/L (≈ 14 µM)
[15]; SDA pH 5.7
  MIC: 128 mg/L (≈ 447 µM)
[15]; YNBDA pH 5.5
  MIC: > 128 mg/L
[15]; YNBDA pH 7.5
  MIC: 4 mg/L (≈ 14 µM)
[16]; MA pH 7.0
  MIC: 16 mg/L (≈ 55.9 µM)
[16]; SDA pH 5.7
  MIC: > 128 mg/L
[16]; YNBDA pH 5.5
  MIC: > 128 mg/L
[16]; YNBDA pH 7.5
  MIC: 8 mg/L (≈ 27.9 µM)
